Assay results from publication PMC11662004 (Communications Chemistry, 2024).
Values joined by “and” are separate entries in the source; they are usually repeats but may differ in a detail not shown here. Equal entries are not always repeated. Where two headings read alike, the source gives them in different places. Positions of bridges follow the written chain, without caps; N, C: chain ends. Non-standard residues stand in square brackets, D forms with d. Residues, ends and D or L forms follow the SMILES beside them.

Tests used:
NgTet1 [1] = molecular target: T1, NgTet1 (Naegleria gruberi, UniProt D2W6T1); experiment: biochemical
T1 construct: His6-tagged full-length Naegleria gruberi NgTet1 (321 a. a.) protein with a thrombin cleavage site; made in house; host or cells: E. coli BL21(DE3)
T1 sequence (D2W6T1 1-321): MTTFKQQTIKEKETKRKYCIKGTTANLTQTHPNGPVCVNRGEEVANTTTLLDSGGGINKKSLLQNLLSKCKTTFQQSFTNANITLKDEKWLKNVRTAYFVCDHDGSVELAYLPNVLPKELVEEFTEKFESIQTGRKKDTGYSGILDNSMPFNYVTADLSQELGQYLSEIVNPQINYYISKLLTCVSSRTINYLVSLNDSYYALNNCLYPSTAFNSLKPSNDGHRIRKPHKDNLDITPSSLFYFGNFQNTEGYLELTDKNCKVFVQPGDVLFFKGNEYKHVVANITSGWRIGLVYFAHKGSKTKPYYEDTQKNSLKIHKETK
Procedure: (Fig. 5a), were screened for inhibitory activity against NgTet1.
(§1) Activity was normalised against reactions containing vehicle (DMSO). […] AS data shown as the mean of three experimental replicates (n = 3; mean ± SD); ^1H NMR data plotted from two independent replicates (n = 2); tabulated data reported as the mean of two and three independent replicates for ^1H NMR and AS, respectively (n = 2–3, SD reported for n = 3). N. d.: not determined; AS: AlphaScreen.
Compounds in DMSO (100 nL) were pre-dispensed in a logarithmically linear concentration gradient onto 384-well ProxiPlates using an Echo® 550 acoustic liquid handler (Labcyte). NgTet1 was pre-incubated with the inhibitor dilution series in DMSO at room temperature for 10 min. Reactions were initiated by the addition of appropriate cofactors and DNA. […] The reactions were quenched by the addition of 30 mM EDTA (pH 4.2), 358 mM NaCl (5 μL) within the enzyme linear activity window (determined in Fig. S10). Concurrently, a mixture containing the anti-^5hmC antibody (1:2000 dilution) and AlphaScreen beads (1:62.5 dilution) in assay buffer was prepared and incubated at room temperature for 30 min. The AlphaScreen bead/antibody mixture was added to the quenched NgTet1 reactions (5 μL), and the complete mixture was incubated at room temperature for 1 h. Chemiluminescence was measured on a PHERAstar FS/FSX (BMG Labtech) equipped with an AlphaScreen 680 570 module. All AlphaScreen bead manipulations were performed under subdued lighting. Inhibition data was normalised to reactions containing vehicle only (1% v/v DMSO) and fitted using “log(inhibitor) vs. response—Variable slope (four parameters)” non-linear regression model on GraphPad Prism 5.

NgTet1 [2] = molecular target: T1, NgTet1; experiment: biochemical; conditions: for normalised activity: NgTet1, NMR, 2 independent replicates
Procedure: as §1
All ^1H NMR spectra were recorded at 25 °C using D2O as a reference for internal deuterium lock on a Bruker Avance III 700 MHz equipped with an inverse TCI cryoprobe in 3 or 5 mm diameter tubes with a total sample volume of 160 or 565 μL, respectively. The water signal was reduced using Perfect Echo excitation sculpting suppression. Chemical shifts are reported in ppm relative to D2O (δH = 4.70 ppm).
NgTet1 was pre-incubated with inhibitor dilution series in DMSO-d6 at room temperature for 10 min (50 mM Tris-d11 [pH 7.5], 2% v/v DMSO-d6). Reactions were initiated by the addition of appropriate cofactors and DNA. […] The reactions were quenched by the addition of 9 mM NOG and 9 mM ZnCl2 in 90 mM Tris-d11 [pH 7.5] (20 μL) within the enzyme linear activity window (determined in Figure. S10). Samples were transferred to NMR tubes and subjected to ^1H NMR analysis. Data were processed as described above. Inhibition data was normalised to reactions containing vehicle only (1% v/v DMSO-d6) and fitted using “log(inhibitor) vs. response - Variable slope (four parameters)” non-linear regression model on GraphPad Prism 5.
Activity was normalised against reactions containing vehicle only (100% activity). Data is shown as the mean of 2 independent replicates (n = 2; […]
Fig. S10 Determination of linear NgTet1 enzymatic activity windows for inhibitor characterisation. a 1H NMR succinate detection time courses with no DNA, 5HC DNA (double- […]
complementary 5'-ACC AC5mC GGT GGT-3'). b AlphaScreen 5hmC detection time course using […]
courses shown. 1H NMR reaction conditions: 5 μM NgTet1, 2 mM sodium L-ascorbate, 100 μM […]
v/v D2O. DNA was added to a final concentration of 20 μM of double-stranded DNA. […]

CC[C@H](C)[C@@H]1NC(=O)[C@H](CC(C)C)NC(=O)[C@@H](Cc2ccc(O)cc2)NC(=O)CSC[C@@H](C(N)=O)NC(=O)[C@H](CO)NC(=O)[C@H](Cc2c[nH]cn2)NC(=O)[C@H](CCC(=O)O)NC(=O)[C@H](Cc2c[nH]c3ccccc23)NC(=O)[C@H](Cc2c[nH]c3ccccc23)NC(=O)[C@H]([C@@H](C)O)NC(=O)[C@H](Cc2ccc(O)cc2)NC(=O)[C@H](Cc2ccc(O)cc2)NC(=O)[C@H](C)NC(=O)[C@H](Cc2ccc(O)cc2)NC1=O [TiP1] ({CH2CO}-[dY]LIYAYYTWWEHSC-NH2; thioether N-14)
IC50 (NgTet1 [1]): 26.3 µM | normalised activity, % (NgTet1 [1]; AlphaScreen, -Log[inhibitor] (M) 8.73132): 115.665% and 99.133% and 91.2094% and 100% and 99.1774% and 99.7728% and 97.6796% | uncoupled 2OG decarboxylase activity relative to control (NgTet1 [2]; 1.2 equivalents (6.17 μM) of ligand, no 5mC DNA substrate): 137% | normalised activity, % (NgTet1 [2]; 5mC DNA, NMR, -Log[inhibitor] (M) 3.30103): 0.3831% and 0.8644% | normalised activity, % (NgTet1 [2]; 5mC DNA, NMR, -Log[inhibitor] (M) 3.77815): 0% | normalised activity, % (NgTet1 [2]; 5mC DNA, NMR, -Log[inhibitor] (M) 4.25527): 7.31% and 14.7287% | normalised activity, % (NgTet1 [2]; 5mC DNA, NMR, -Log[inhibitor] (M) 4.73239): 78.5121% and 83.5696% | normalised activity, % (NgTet1 [2]; 5mC DNA, NMR, -Log[inhibitor] (M) 5.20951): 98.5224% and 104.299% | normalised activity, % (NgTet1 [2]; 5mC DNA, NMR, -Log[inhibitor] (M) 5.68664): 102.213% and 96.5096% | normalised activity, % (NgTet1 [2]; 5mC DNA, NMR, -Log[inhibitor] (M) 6.16376): 101.348% and 99.8653% | normalised activity, % (NgTet1 [2]; 5mC DNA, NMR, -Log[inhibitor] (M) 6.64088): 101.5% and 99.6319% | normalised activity, % (NgTet1 [2]; 5mC DNA, NMR, -Log[inhibitor] (M) 7.118): 99.9781% and 101.169% | normalised activity, % (NgTet1 [2]; 5mC DNA, NMR, -Log[inhibitor] (M) 7.59512): 101.989% and 101.514% | normalised activity (NgTet1 [2]; -Log[inhibitor] (M) 3.30103): 1.539% and 0.6062% | normalised activity (NgTet1 [2]; -Log[inhibitor] (M) 3.77815): 5.644% and 0.04671% | normalised activity (NgTet1 [2]; -Log[inhibitor] (M) 4.25527): 23.0301% and 11.8368% | normalised activity (NgTet1 [2]; -Log[inhibitor] (M) 4.73239): 129.261% and 95.1469% | normalised activity (NgTet1 [2]; -Log[inhibitor] (M) 5.20951): 124.894% and 132.33% | normalised activity (NgTet1 [2]; -Log[inhibitor] (M) 5.68664): 97.9138% and 111.807% | normalised activity (NgTet1 [2]; -Log[inhibitor] (M) 6.16376): 101.603% and 106.324% | normalised activity (NgTet1 [2]; -Log[inhibitor] (M) 6.64088): 102.045% and 105.397% | normalised activity (NgTet1 [2]; -Log[inhibitor] (M) 7.118): 107.511% and 102.971% | normalised activity (NgTet1 [2]; -Log[inhibitor] (M) 7.59512): 96.6941% | IC50 (NgTet1 [2]; IC50, 5mC DNA, NMR, 2OG decarboxylation with 20 µM 5mC DNA, 5 μM NgTet1, 50 μM 2OG): 28.8 µM | IC50 (NgTet1 [2]; IC50, No DNA, NMR, uncoupled 2OG decarboxylation, no DNA, 5 μM NgTet1, 50 μM 2OG): 26.3 µM | IC50 (NgTet1 [2]; IC50 across all assays, AS and 1H NMR assays): 26 to 29 µM | normalised activity, % (NgTet1 [2]; No DNA, NMR, -Log[inhibitor] (M) 3.30103): 1.539% and 0.6062% | normalised activity, % (NgTet1 [2]; No DNA, NMR, -Log[inhibitor] (M) 3.77815): 5.644% and 0.04671% | normalised activity, % (NgTet1 [2]; No DNA, NMR, -Log[inhibitor] (M) 4.25527): 23.0301% and 11.8368% | normalised activity, % (NgTet1 [2]; No DNA, NMR, -Log[inhibitor] (M) 4.73239): 129.261% and 95.1469% | normalised activity, % (NgTet1 [2]; No DNA, NMR, -Log[inhibitor] (M) 5.20951): 124.894% and 132.33% | normalised activity, % (NgTet1 [2]; No DNA, NMR, -Log[inhibitor] (M) 5.68664): 97.9138% and 111.807% | normalised activity, % (NgTet1 [2]; No DNA, NMR, -Log[inhibitor] (M) 6.16376): 101.603% and 106.324% | normalised activity, % (NgTet1 [2]; No DNA, NMR, -Log[inhibitor] (M) 6.64088): 102.045% and 105.397% | normalised activity, % (NgTet1 [2]; No DNA, NMR, -Log[inhibitor] (M) 7.118): 107.511% and 102.971% | normalised activity, % (NgTet1 [2]; No DNA, NMR, -Log[inhibitor] (M) 7.59512): 96.6941% | normalised activity, % (NgTet1 [2]; TiP1 statistical test, NMR, no DNA, NgTet1/TiP1 ratio 1:1.2, technical replicates): 140.602% and 133.857% and 142.6% and 131.935% | normalised activity, % (NgTet1 [2]; TiP1 statistical test, NMR, no DNA, NgTet1/TiP1 ratio 1:3.7, technical replicates): 103.459% and 107.449% and 116.09% and 117.125%
